Patent US12161722B2, “Bifunctional heterocyclic compound having BTK degradation function via ubiquitin proteasome pathway, and use thereof” (KOREA RESEARCH INSTITUTE OF CHEMICAL TECHNOLOGY, priority 2021, dated 2024)

Molecular target: T1, WT BTK protein (Homo sapiens, UniProt Q06187)
T1 construct: measured for intracellular BTK protein levels by Western blotting; endogenous in cells; host or cells: TMD-8 or RAMOS cells
Assay: BTK protein degradation assay (Western blotting), WT BTK
Assay type: cell-based
Details: concentration range accounting for 50% degradation of WT BTK protein, TMD-8 or RAMOS cells, 24 hours
Procedure, shortened: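 TMD-8 cells (1×10^6 cells/mL) treated 24 h with compound serial dilutions, then lysed in RIPA. Equal protein loads analysed by Western blot for BTK with GAPDH/β-actin as loading controls; activity binned by concentration giving 50% WT BTK degradation.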

T1 sequence (Q06187 whole entry): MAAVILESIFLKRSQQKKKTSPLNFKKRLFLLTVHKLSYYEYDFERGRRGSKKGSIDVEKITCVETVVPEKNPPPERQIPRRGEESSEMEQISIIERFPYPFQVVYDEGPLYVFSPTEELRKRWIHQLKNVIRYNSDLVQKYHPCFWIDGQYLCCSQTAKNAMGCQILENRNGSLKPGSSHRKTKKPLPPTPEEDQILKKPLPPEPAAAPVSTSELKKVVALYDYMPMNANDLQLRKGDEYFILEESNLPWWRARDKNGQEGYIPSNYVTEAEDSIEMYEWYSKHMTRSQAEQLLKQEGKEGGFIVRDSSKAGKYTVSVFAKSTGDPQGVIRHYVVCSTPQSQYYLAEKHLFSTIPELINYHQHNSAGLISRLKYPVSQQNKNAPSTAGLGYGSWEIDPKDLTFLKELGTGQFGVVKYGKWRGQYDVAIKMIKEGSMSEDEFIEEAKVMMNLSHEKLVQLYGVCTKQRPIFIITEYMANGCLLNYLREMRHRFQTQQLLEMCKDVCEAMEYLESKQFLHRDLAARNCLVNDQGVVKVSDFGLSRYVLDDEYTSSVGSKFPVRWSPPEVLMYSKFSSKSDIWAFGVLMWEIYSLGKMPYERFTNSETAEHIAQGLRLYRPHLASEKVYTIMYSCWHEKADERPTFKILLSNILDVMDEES

| Compound | DC50 [nM] |
| --- | --- |
| Cc1cccc(C)c1Nc1nn(C)c2nc(Nc3ccc4c(c3)CN(C(=S)C3CCN(c5cc6c(cc5F)C(=O)N(C5CCC(=O)NC5=O)C6=O)CC3)CC4)ncc12 (centres unmarked) [Compound 233, 5-(4-(7-((3-((2,6-dimethylphenyl)amino)-1-methyl-1H-pyrazolo[3,4-d]pyrimidin-6-yl)amino)-1,2,3,4-tetrahydroisoquinoline-2-carbonothioyl)piperidin-1-yl)-2-(2,6-dioxopiperidin-3-yl)-6-fluoroisoindoline-1,3-dione] | 0.1 to 10 |
| Cc1cccc(C)c1Nc1nn(C)c2nc(Nc3ccc4c(c3)CN(C(=S)C3CCN(C(=O)C5CCN(c6ccc7c(c6)C(=O)N(C6CCC(=O)NC6=O)C7=O)CC5)CC3)CC4)ncc12 (centres unmarked) [Compound 234, 5-(4-(4-(7-((3-((2,6-dimethylphenyl)amino)-1-methyl-1H-pyrazolo[3,4-d]pyrimidin-6-yl)amino)-1,2,3,4-tetrahydroisoquinoline-2-carbonothioyl)piperidine-1-carbonyl)piperidin-1-yl)-2-(2,6-dioxopiperidin-3-yl)isoindoline-1,3-dione] | 0.1 to 10 |
| Cc1cccc(C)c1Nc1nn(C)c2nc(Nc3ccc4c(c3)CN(C(=S)C3CCN(C(=O)CNc5ccc6c(c5)C(=O)N(C5CCC(=O)NC5=O)C6=O)CC3)CC4)ncc12 (centres unmarked) [Compound 235, 5-((2-(4-(7-((3-((2,6-dimethylphenyl)amino)-1-methyl-1H-pyrazolo[3,4-d]pyrimidin-6-yl)amino)-1,2,3,4-tetrahydroisoquinoline-2-carbonothioyl)piperidin-1-yl)-2-oxoethyl)amino)-2-(2,6-dioxopiperidin-3-yl)isoindoline-1,3-dione] | 0.1 to 10 |
| Cc1cccc(C)c1Nc1nn(C)c2nc(Nc3ccc4c(c3)CN(C(=S)C3CCN(C(=O)COc5ccc6c(c5)C(=O)N(C5CCC(=O)NC5=O)C6=O)CC3)CC4)ncc12 (centres unmarked) [Compound 236, 5-(2-(4-(7-((3-((2,6-dimethylphenyl)amino)-1-methyl-1H-pyrazolo[3,4-d]pyrimidin-6-yl)amino)-1,2,3,4-tetrahydroisoquinoline-2-carbonothioyl)piperidin-1-yl)-2-oxoethoxy)-2-(2,6-dioxopiperidin-3-yl)isoindoline-1,3-dione] | 0.1 to 10 |
| Cc1cccc(C)c1Nc1nn(C)c2nc(Nc3ccc(N4CCN(c5ccc6c(c5)C(=O)N(C5CCC(=O)NC5=O)C6=O)CC4)cc3)ncc12 (centres unmarked) [Compound 238, 5-(4-(4-((3-((2,6-dimethylphenyl)amino)-1-methyl-1H-pyrazolo[3,4-d]pyrimidin-6-yl)amino)phenyl)piperazin-1-yl)-2-(2,6-dioxopiperidin-3-yl)isoindoline-1,3-dione] | 0.1 to 10 |
| Cc1cccc(C)c1Nc1nn(C)c2nc(Nc3ccc4c(c3)CN(C(=O)/C(C#N)=C/C3CCN(C(=O)C5CCN(c6ccc7c(c6)C(=O)N(C6CCC(=O)NC6=O)C7=O)CC5)CC3)CC4)ncc12 (centres unmarked) [Compound 240, (E)-2-(7-((3-((2,6-Dimethylphenyl)amino)-1-methyl-1H-pyrazolo[3,4-d]pyrimidin-6-yl)amino)-1,2,3,4-tetrahydroisoquinoline-2-carbonyl)-3-(1-(1-(2-(2,6-dioxopiperidin-3-yl)-1,3-dioxoisoindolin-5-yl)piperidine-4-carbonyl)piperidin-4-yl)acrylonitrile] | 0.1 to 10 |

The next lines start with the values.

| DC50 [nM] | Compound |
| --- | --- |
| 0.1 to 10 | Cc1cccc(C)c1Nc1nn(C)c2nc(Nc3ccc(C4CCN(C(=O)CC5CCN(c6ccc7c(c6)C(=O)N(C6CCC(=O)NC6=O)C7=O)CC5)CC4)c(F)c3)ncc12 (centres unmarked) [Compound 227, 5-(4-(2-(4-(4-((3-((2,6-dimethylphenyl)amino)-1-methyl-1H-pyrazolo[3,4-d]pyrimidin-6-yl)amino)-2-fluorophenyl)piperidin-1-yl)-2-oxoethyl)piperidin-1-yl)-2-(2,6-dioxopiperidin-3-yl)isoindoline-1,3-dione] |
| 0.1 to 10 | Cc1cccc(C)c1Nc1nn(C)c2nc(Nc3ccc(C4CCN(C(=O)C5CN(c6ccc7c(c6)C(=O)N(C6CCC(=O)NC6=O)C7=O)C5)CC4)cc3)ncc12 (centres unmarked) [Compound 228, 5-(3-(4-(4-((3-((2,6-dimethylphenyl)amino)-1-methyl-1H-pyrazolo[3,4-d]pyrimidin-6-yl)amino)phenyl)piperidine-1-carbonyl)azetidin-1-yl)-2-(2,6-dioxopiperidin-3-yl)isoindoline-1,3-dione] |
| 10 to 1000 | Cc1cccc(C)c1Nc1nn(C)c2nc(Nc3ccc(C4CCN(C(=O)C5CN(c6ccc7c(c6)C(=O)N(C6CCC(=O)NC6=O)C7=O)C5)CC4)c(F)c3)ncc12 (centres unmarked) [Compound 229, 5-(3-(4-(4-((3-((2,6-dimethylphenyl)amino)-1-methyl-1H-pyrazolo[3,4-d]pyrimidin-6-yl)amino)-2-fluorophenyl)piperidine-1-carbonyl)azetidin-1-yl)-2-(2,6-dioxopiperidin-3-yl)isoindoline-1,3-dione] |
| 0.1 to 10 | Cc1cccc(C)c1Nc1nn(C)c2nc(Nc3ccc(C4=CCN(CC5CCN(c6ccc7c(c6)C(=O)N(C6CCC(=O)NC6=O)C7=O)CC5)CC4)cc3)ncc12 (centres unmarked) [Compound 230, 5-(4-((4-(4-((3-((2,6-Dimethylphenyl)amino)-1-methyl-1H-pyrazolo[3,4-d]pyrimidin-6-yl)amino)phenyl)-3,6-dihydropyridin-1 (2H)-yl)methyl)piperidin-1-yl)-2-(2,6-dioxopiperidin-3-yl)isoindoline-1,3-dione] |
| 10 to 1000 | Cc1cccc(C)c1Nc1nn(C)c2nc(Nc3ccc(C4CCN(CC5CCN(c6ccc7c(c6)C(=O)N(C6CCC(=O)NC6=O)C7=O)CC5)CC4)cc3F)ncc12 (centres unmarked) [Compound 231, 5-(4-((4-(4-((3-((2,6-Dimethylphenyl)amino)-1-methyl-1H-pyrazolo[3,4-d]pyrimidin-6-yl)amino)-3-fluorophenyl)piperidin-1-yl)methyl)piperidin-1-yl)-2-(2,6-dioxopiperidin-3-yl)isoindoline-1,3-dione] |
| 0.1 to 10 | Cc1cccc(C)c1Nc1nn(C)c2nc(Nc3ccc4c(c3)CN(C(=S)C3CCN(c5ccc6c(c5)C(=O)N(C5CCC(=O)NC5=O)C6=O)CC3)CC4)ncc12 (centres unmarked) [Compound 232, 5-(4-(7-((3-((2,6-dimethylphenyl)amino)-1-methyl-1H-pyrazolo[3,4-d]pyrimidin-6-yl)amino)-1,2,3,4-tetrahydroisoquinoline-2-carbonothioyl)piperidin-1-yl)-2-(2,6-dioxopiperidin-3-yl)isoindoline-1,3-dione] |
| 0.1 to 10 | Cc1cccc(C)c1Nc1nn(C)c2nc(Nc3ccc4c(c3)CN(CC3CCN(c5ccc6c(c5)CN(C5CCC(=O)NC5=O)C6=O)CC3)CC4)ncc12 (centres unmarked) [Compound 237, 3-(5-(4-((7-((3-((2,6-Dimethylphenyl)amino)-1-methyl-1H-pyrazolo[3,4-d]pyrimidin-6-yl)amino)-3,4-dihydroisoquinolin-2 (1H)-yl)methyl)piperidin-1-yl)-1-oxoisoindolin-2-yl)piperidin-2,6-one] |
| 10 to 1000 | Cc1cccc(C)c1Nc1nn(C)c2nc(Nc3ccc(N4CCN(c5cc6c(cc5F)C(=O)N(C5CCC(=O)NC5=O)C6=O)CC4)cc3)ncc12 (centres unmarked) [Compound 239, 5-(4-(4-((3-((2,6-Dimethylphenyl)amino)-1-methyl-1H-pyrazolo[3,4-d]pyrimidin-6-yl)amino)phenyl)piperazin-1-yl)-2-(2,6-dioxopiperidin-3-yl)-6-fluoroisoindoline-1,3-dione] |
